Legend:
[1] = tested on: HepG2-luc orthotopic xenograft tumor; assay: In vivo pharmacodynamics on orthotopic xenograft tumor model of human liver cancer HepG2; parameters: species or system Balb/C nude mice; conditions: for Bioluminescence (Day 1) / Bioluminescence (Day 21): mean, n=6 (Table 8); for Bioluminescence (Day 21) / RBL (Day 21), relative tumor signal growth value / T/C (%) (Day 21) / TGI (%) (Day 21) / T/Cweight (%) / Tumor weight (Day 21): Day 21; for T/Cweight (%): TWtreatment/TWvehicle; for Tumor weight (Day 21): mean ± SEM, n=6
Description: In this experiment, orthotopic xenograft tumor model of HepG2 in a nude mouse was used to evaluate the anti-tumor effect of the compound.
Female Balb/C nude mice, 6 to 8 weeks old, weighing 18 to 22 g, fetal bovine serum […], EMEM medium (Cat. No. 30-2003), phosphate buffer, Antibiotic-Antimycotic (Cat. No. 15240-062), Matrigel, and trypsin.
1. Preparation of cell culture: HepG2-luc cells were cultured in monolayer in vitro. The culture conditions were that 10% heat-inactivated fetal bovine serum was added to EMEM medium and the cells were cultured in an incubator containing 5% CO2 at 37° C. Digestion with trypsin-EDTA was performed twice a week for passaging. When the cell saturation was 80% to 90%, the cells were digested with trypsin-EDTA, counted, and resuspended in PBS and Matrigel (PBS: Matrigel=1:1), and the density was 166.67×10^6 cells/mL.
2. Tumor cell inoculation and grouping: Animals were anesthetized by intramuscular injection of 60 mg/kg Zoletil 50 and 1.5 mg/kg xylazine. When the animals were under deep anesthesia, the animals were properly fixed, and the abdomen skin was cleaned with 75% alcohol cotton balls. An incision of about 10 mm was cut with surgery, and 0.03 mL (PBS: Matrigel=1:1) of HepG2-luc cells was orthotopically inoculated on the left lobe of the liver of each mouse, and then the incision on the muscle layer was sutured with absorbable catgut, and the incision on the skin was sutured with a stapler. After surgery, the animals were kept warm on a warming blanket until they woke up. To relieve the pain of the animals, 2 mg/kg of meloxicam (administered subcutaneously once a day) would be administered for 3 consecutive days after surgery. 15 animals were randomly selected to detect the growth of the signal. When the signal began to rise, animals were randomly divided into groups according to the value of the bioluminescence signal, and the administration of the drug was started.
(§1) The experimental indicator is whether the tumor growth can be delayed or whether the tumor can be cured. After tumor inoculation, the bioluminescence signal and animal weight were detected once a week, which continued until the end of the observation period. The bioluminescence signal value can be used to calculate T/C (wherein T is the administration group, and C is the average intensity value of bioluminescence of the blank control group at the set time). Calculation formula of tumor growth inhibition rate (TGI): TGI (%)=[1−(Ti−T0)/(Vi−V0)]×100, wherein Ti is the average intensity of bioluminescence of the treatment group at the set time; T0 is the average intensity of bioluminescence at the starting point of administration. Vi is the average intensity of bioluminescence of the blank control group at the set time; V0 is the average intensity of bioluminescence at the starting point of administration.
b. Tumor growth inhibition was calculated by T/Cweight=TWtreatment/TWvehicle.
c. The p values were obtained by analyzing the tumor weight using one-way ANOVA between the vehicle group and the treatment groups.

[2] = Animal weight change in the HepG2 orthotopic xenograft model; format: in vivo, Balb/C nude mice; conditions: 1 and 3 mg/kg IV
Source text: as §1

[3] = tested on: Hep3B cells; assay: Anti-proliferative activity on Hep3B cell line (CellTiter-Glo); format: cell-based
Description: (§2) EMEM medium, penicillin/streptomycin antibiotics were purchased from Wisent, and fetal bovine serum was purchased from Biosera. CellTiter-Glo (chemiluminescent cell viability assay reagent) reagent was purchased from Promega. The Hep3B cell line was purchased from the Cell Bank of the Chinese Academy of Sciences. Nivo multimode microplate reader (PerkinElmer).
Hep3B cells (liver cancer) were seeded in a white 96-well plate with 80 μL of cell suspension per well containing 3000 Hep3B cells. The cell plate was incubated overnight in a carbon dioxide incubator. The compound to be tested was 5-fold diluted to the ninth concentration with a multi-channel pipette, that is, the compound to be tested was diluted from 2 mM to 5.12 nM, and an experiment for the sample assayed in duplicate was set up. 78 μL of culture medium was added to the middle plate. According to the corresponding position, 2 µL per well of the gradient-diluted compound was transferred to the middle plate, then 20 μL per well was transferred to the cell plate after mixing well. […] Another cell plate was prepared, and the signal value as the maximum value (Max value in the following equation) was read on the day of drug addition to participate in data analysis. […] A multimode microplate reader was used for reading. […] A multimode microplate reader was used for reading. […]

[4] = tested on: HepG2 cells; assay: Anti-proliferative activity on HepG2 cell line (CellTiter-Glo); format: cell-based, human
Description: as §2, with “DMEM” for “EMEM”, “HepG2” for “Hep3B”
HepG2 cells (liver cancer) were seeded in a white 384-well plate with […] of cell suspension per well containing 1000 HepG2 cells. The cell plate was incubated overnight in a carbon dioxide incubator. The compound to be tested was 3-fold diluted to the ninth concentration with a multi-channel pipette, that is, the compound to be tested was diluted from 200 µM to 30 nM, and an experiment for the sample assayed in duplicate was set up. […] of culture medium was added to the middle plate. According to the corresponding position, […] per well of the gradient-diluted compound was transferred to the middle plate, then […] per well was transferred to the cell plate after mixing well. […] Another cell plate was prepared, and the signal value as the maximum value (Max value in the following equation) was read on the day of drug addition to participate in data analysis. […] A multimode microplate reader was used for reading. […] A multimode microplate reader was used for reading. […]

[5] = Group 2, 1 mg/kg IV Day 0, 7, 14
[6] = Group 3, 3 mg/kg IV Day 0, 7, 14

O=[N+]([O-])c1cc2c(cc1Oc1cccnc1F)[C@H](OP(=O)(N1CC1)N1CC1)COC2 [Compound of formula (I)]
inhibitory effect on tumor growth (in words) ([1]; 1 mg/kg, after 21 days of administration): significant inhibitory effect on tumor growth | Bioluminescence (Day 1) [1, 5]: 3.51E+09 photons/second | Bioluminescence (Day 21) [1, 5]: 4.35E+09 photons/second | Bioluminescence signal value of tumor tissue ([1]; Group 2, 1 mg/kg IV, 0 days after administration (Table 10)): 1.47E+09 photons/second | Bioluminescence signal value of tumor tissue ([1]; Group 2, 1 mg/kg IV, 7 days after administration (Table 10)): 4.34E+09 photons/second | Bioluminescence signal value of tumor tissue ([1]; Group 2, 1 mg/kg IV, 14 days after administration (Table 10)): 4.76E+09 photons/second | Bioluminescence signal value of tumor tissue ([1]; Group 2, 1 mg/kg IV, 21 days after administration (Table 10)): 4.52E+09 photons/second | RBL (Day 21), relative tumor signal growth value ([1]; Group 2, 1 mg/kg IV): 0.98 | T/C (%) (Day 21) ([1]; Group 2, 1 mg/kg IV): 10.04% | TGI (%) (Day 21) ([1]; Group 2, 1 mg/kg IV): 96.97% | T/Cweight (%) ([1]; Group 2, 1 mg/kg IV): 15.80% | Tumor weight (Day 21) ([1]; Group 2, 1 mg/kg IV): 0.090 ± 0.036 g | Bioluminescence (Day 1) [1, 6]: 3.51E+09 photons/second | Bioluminescence (Day 21) [1, 6]: 1.81E+09 photons/second | Bioluminescence signal value of tumor tissue ([1]; Group 3, 3 mg/kg IV, 0 days after administration (Table 10)): 1.47E+09 photons/second | Bioluminescence signal value of tumor tissue ([1]; Group 3, 3 mg/kg IV, 7 days after administration (Table 10)): 2.77E+09 photons/second | Bioluminescence signal value of tumor tissue ([1]; Group 3, 3 mg/kg IV, 14 days after administration (Table 10)): 2.59E+09 photons/second | Bioluminescence signal value of tumor tissue ([1]; Group 3, 3 mg/kg IV, 21 days after administration (Table 10)): 2.16E+09 photons/second | RBL (Day 21), relative tumor signal growth value ([1]; Group 3, 3 mg/kg IV): 0.41 | T/C (%) (Day 21) ([1]; Group 3, 3 mg/kg IV): 4.22% | TGI (%) (Day 21) ([1]; Group 3, 3 mg/kg IV): 106.21% | T/Cweight (%) ([1]; Group 3, 3 mg/kg IV): 10.23% | Tumor weight (Day 21) ([1]; Group 3, 3 mg/kg IV): 0.058 ± 0.013 g | inhibitory effect on tumor growth (conclusion, in words) ([1]; HepG2 orthotopic model, 1 and 3 mg/kg IV): significant inhibitory effect on tumor growth | anti-tumor effect (in words) ([1]; dose increased to 3 mg/kg): significantly enhanced | animal weight in the administration group (in words) [2]: does not decrease significantly | anti-proliferative activity on Hep3B (in words) ([3]; Hep3B with low expression of AKR1C3): no anti-proliferative activity | IC50 ([3]; Homo sapiens, 72 h, Hep3B (low expression of AKR1C3), 3 days incubation): > 10000 nM | anti-proliferative activity on HepG2 (in words) ([4]; HepG2 with high expression of AKR1C3): excellent anti-proliferative activity | IC50 ([4]; Homo sapiens, 120 h, HepG2 (high expression of AKR1C3), 5 days incubation): 7.4 nM
